Measurements published in PubChem BioAssay (NCI).
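Test compounds were applied to cells in 96-well plates for 48 hours at 5 doses. TGI is the concentration that stops growth completely.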

What was measured:
Assay in all cases: NCI-60 cell line screen, 48 h
786-0 renal = tested on: 786-0 renal
A498 renal = tested on: A498 renal
A549 NSCLC = tested on: A549 NSCLC
ACHN renal = tested on: ACHN renal
BT-549 breast = tested on: BT-549 breast
CAKI-1 renal = tested on: CAKI-1 renal
CCRF-CEM leukemia = tested on: CCRF-CEM leukemia
COLO 205 colon = tested on: COLO 205 colon
DU-145 prostate = tested on: DU-145 prostate
EKVX NSCLC = tested on: EKVX NSCLC
HCC-2998 colon = tested on: HCC-2998 colon
HCT-116 colon = tested on: HCT-116 colon
HCT-15 colon = tested on: HCT-15 colon
HL-60(TB) leukemia = tested on: HL-60(TB) leukemia
HOP-62 NSCLC = tested on: HOP-62 NSCLC
HOP-92 NSCLC = tested on: HOP-92 NSCLC
HS 578T breast = tested on: HS 578T breast
HT29 colon = tested on: HT29 colon
IGROV1 ovarian = tested on: IGROV1 ovarian
KM12 colon = tested on: KM12 colon
LOX IMVI melanoma = tested on: LOX IMVI melanoma
M14 melanoma = tested on: M14 melanoma
MALME-3M melanoma = tested on: MALME-3M melanoma
MCF7 breast = tested on: MCF7 breast
MDA-MB-231 breast = tested on: MDA-MB-231 breast
MDA-MB-435 = tested on: MDA-MB-435
MDA-N = tested on: MDA-N
MOLT-4 leukemia = tested on: MOLT-4 leukemia
NCI-H226 lung = tested on: NCI-H226 lung
NCI-H23 lung = tested on: NCI-H23 lung
NCI-H460 lung = tested on: NCI-H460 lung
NCI-H522 lung = tested on: NCI-H522 lung
NCI/ADR-RES ovarian = tested on: NCI/ADR-RES ovarian
OVCAR-3 ovarian = tested on: OVCAR-3 ovarian
OVCAR-4 ovarian = tested on: OVCAR-4 ovarian
OVCAR-5 ovarian = tested on: OVCAR-5 ovarian
OVCAR-8 ovarian = tested on: OVCAR-8 ovarian
PC-3 prostate = tested on: PC-3 prostate
RPMI-8226 leukemia = tested on: RPMI-8226 leukemia
RXF 393 renal = tested on: RXF 393 renal
SF-268 CNS = tested on: SF-268 CNS
SF-295 CNS = tested on: SF-295 CNS
SF-539 CNS = tested on: SF-539 CNS
SK-MEL-2 melanoma = tested on: SK-MEL-2 melanoma
SK-MEL-28 melanoma = tested on: SK-MEL-28 melanoma
SK-MEL-5 melanoma = tested on: SK-MEL-5 melanoma
SK-OV-3 ovarian = tested on: SK-OV-3 ovarian
SN12C renal = tested on: SN12C renal
SNB-19 CNS = tested on: SNB-19 CNS
SNB-75 CNS = tested on: SNB-75 CNS
SR leukemia = tested on: SR leukemia
SW-620 colon = tested on: SW-620 colon
T-47D breast = tested on: T-47D breast
TK-10 renal = tested on: TK-10 renal
U251 CNS = tested on: U251 CNS
UACC-257 melanoma = tested on: UACC-257 melanoma
UACC-62 melanoma = tested on: UACC-62 melanoma
UO-31 renal = tested on: UO-31 renal
K-562 leukemia = tested on: K-562 leukemia

Work on `C[N+](C)(C)CC(=O)N/N=C(/CC1OC(=O)c2ccccc21)c1ccccc1O` (stereo unspecified) yielded a TGI (786-0 renal) of 86.5 µM, a TGI (A498 renal) of 77.1 µM and a TGI (A549 NSCLC) of over 100 µM. For the same molecule, the TGI (ACHN renal) was 66.4 µM, the TGI (BT-549 breast) was 95.7 µM and the TGI (CAKI-1 renal) was over 100 µM. It also gave a TGI (CCRF-CEM leukemia) of 49.3 µM, a TGI (COLO 205 colon) of over 100 µM and a TGI (DU-145 prostate) of over 100 µM. For the same molecule, the TGI (EKVX NSCLC) was over 100 µM, the TGI (HCC-2998 colon) was 50.9 µM and the TGI (HCT-116 colon) was over 100 µM. The TGI (HCT-15 colon) was over 100 µM, the TGI (HL-60(TB) leukemia) was 52.3 µM and the TGI (HOP-62 NSCLC) was over 100 µM. The TGI (HOP-92 NSCLC) was 87.6 µM, the TGI (HS 578T breast) was over 100 µM and the TGI (HT29 colon) was over 100 µM. For the same molecule, the TGI (IGROV1 ovarian) was over 100 µM, the TGI (KM12 colon) was over 100 µM and the TGI (LOX IMVI melanoma) was 43.2 µM. The TGI (M14 melanoma) was over 100 µM, the TGI (MALME-3M melanoma) was over 100 µM and the TGI (MCF7 breast) was over 100 µM. For the same molecule, the TGI (MDA-MB-231 breast) was over 100 µM, the TGI (MDA-MB-435) was 97.8 µM and the TGI (MDA-N) was over 100 µM. For the same molecule, the TGI (MOLT-4 leukemia) was 42.4 µM, the TGI (NCI-H226 lung) was 57.4 µM and the TGI (NCI-H23 lung) was 85.4 µM. The TGI (NCI-H460 lung) was 70.9 µM, the TGI (NCI-H522 lung) was over 100 µM and the TGI (NCI/ADR-RES ovarian) was 55.4 µM. It also gave a TGI (OVCAR-3 ovarian) of over 100 µM, a TGI (OVCAR-4 ovarian) of over 100 µM and a TGI (OVCAR-5 ovarian) of over 100 µM. The TGI (OVCAR-8 ovarian) was 82 µM, the TGI (PC-3 prostate) was over 100 µM and the TGI (RPMI-8226 leukemia) was 22.1 µM. The TGI (RXF 393 renal) was 86.4 µM, the TGI (SF-268 CNS) was over 100 µM and the TGI (SF-295 CNS) was over 100 µM. The TGI (SF-539 CNS) was 62.3 µM, the TGI (SK-MEL-2 melanoma) was over 100 µM and the TGI (SK-MEL-28 melanoma) was over 100 µM. It also gave a TGI (SK-MEL-5 melanoma) of over 100 µM, a TGI (SK-OV-3 ovarian) of over 100 µM and a TGI (SN12C renal) of over 100 µM. For the same molecule, the TGI (SNB-19 CNS) was over 100 µM, the TGI (SNB-75 CNS) was over 100 µM and the TGI (SR leukemia) was 34 µM. The TGI (SW-620 colon) was over 100 µM, the TGI (T-47D breast) was over 100 µM and the TGI (TK-10 renal) was over 100 µM. For the same molecule, the TGI (U251 CNS) was 72.3 µM, the TGI (UACC-257 melanoma) was 78.9 µM and the TGI (UACC-62 melanoma) was 72.1 µM. The TGI (UO-31 renal) was 56.1 µM.
Work on `O=c1c2ccccc2nc(-c2ccccc2)n1O` yielded a TGI (786-0 renal) of over 100 µM, a TGI (A498 renal) of over 100 µM and a TGI (A549 NSCLC) of over 100 µM. It also gave a TGI (ACHN renal) of over 100 µM, a TGI (BT-549 breast) of over 100 µM and a TGI (CAKI-1 renal) of over 100 µM. It also gave a TGI (CCRF-CEM leukemia) of over 100 µM, a TGI (COLO 205 colon) of over 100 µM and a TGI (DU-145 prostate) of over 100 µM. The TGI (EKVX NSCLC) was over 100 µM, the TGI (HCC-2998 colon) was over 100 µM and the TGI (HCT-116 colon) was over 100 µM. For the same molecule, the TGI (HCT-15 colon) was over 100 µM, the TGI (HL-60(TB) leukemia) was over 100 µM and the TGI (HOP-62 NSCLC) was 37.4 µM. For the same molecule, the TGI (HOP-92 NSCLC) was over 100 µM, the TGI (HS 578T breast) was over 100 µM and the TGI (HT29 colon) was over 100 µM. For the same molecule, the TGI (IGROV1 ovarian) was over 100 µM, the TGI (K-562 leukemia) was over 100 µM and the TGI (KM12 colon) was over 100 µM. For the same molecule, the TGI (LOX IMVI melanoma) was over 100 µM, the TGI (M14 melanoma) was over 100 µM and the TGI (MALME-3M melanoma) was over 100 µM. For the same molecule, the TGI (MCF7 breast) was over 100 µM, the TGI (MDA-MB-231 breast) was over 100 µM and the TGI (MDA-MB-435) was over 100 µM. The TGI (MDA-N) was over 100 µM, the TGI (NCI-H226 lung) was over 100 µM and the TGI (NCI-H23 lung) was over 100 µM. The TGI (NCI-H460 lung) was over 100 µM, the TGI (NCI-H522 lung) was over 100 µM and the TGI (NCI/ADR-RES ovarian) was over 100 µM. For the same molecule, the TGI (OVCAR-3 ovarian) was over 100 µM, the TGI (OVCAR-4 ovarian) was over 100 µM and the TGI (OVCAR-5 ovarian) was over 100 µM. It also gave a TGI (OVCAR-8 ovarian) of over 100 µM, a TGI (PC-3 prostate) of over 100 µM and a TGI (RPMI-8226 leukemia) of over 100 µM. For the same molecule, the TGI (RXF 393 renal) was over 100 µM, the TGI (SF-268 CNS) was over 100 µM and the TGI (SF-295 CNS) was over 100 µM. The TGI (SF-539 CNS) was over 100 µM, the TGI (SK-MEL-2 melanoma) was over 100 µM and the TGI (SK-MEL-28 melanoma) was over 100 µM. For the same molecule, the TGI (SK-MEL-5 melanoma) was over 100 µM, the TGI (SK-OV-3 ovarian) was over 100 µM and the TGI (SN12C renal) was over 100 µM. For the same molecule, the TGI (SNB-19 CNS) was over 100 µM, the TGI (SNB-75 CNS) was over 100 µM and the TGI (SR leukemia) was over 100 µM. The TGI (SW-620 colon) was over 100 µM, the TGI (T-47D breast) was over 100 µM and the TGI (TK-10 renal) was over 100 µM. It also gave a TGI (U251 CNS) of over 100 µM, a TGI (UACC-257 melanoma) of over 100 µM and a TGI (UACC-62 melanoma) of over 100 µM. The TGI (UO-31 renal) was over 100 µM.
